In US9012169B2, “Metabolic method to identify compounds having flavor or fragrance” (Givaudan S.A., priority 2004, dated 2015):

Experiments:
human CYP2A13 [1] = biological target: T1, human CYP2A13 (Homo sapiens, UniProt Q16696); conditions: 60 min, 0.3 mM, pH 7.4
T1 sequence (Q16696 1-494): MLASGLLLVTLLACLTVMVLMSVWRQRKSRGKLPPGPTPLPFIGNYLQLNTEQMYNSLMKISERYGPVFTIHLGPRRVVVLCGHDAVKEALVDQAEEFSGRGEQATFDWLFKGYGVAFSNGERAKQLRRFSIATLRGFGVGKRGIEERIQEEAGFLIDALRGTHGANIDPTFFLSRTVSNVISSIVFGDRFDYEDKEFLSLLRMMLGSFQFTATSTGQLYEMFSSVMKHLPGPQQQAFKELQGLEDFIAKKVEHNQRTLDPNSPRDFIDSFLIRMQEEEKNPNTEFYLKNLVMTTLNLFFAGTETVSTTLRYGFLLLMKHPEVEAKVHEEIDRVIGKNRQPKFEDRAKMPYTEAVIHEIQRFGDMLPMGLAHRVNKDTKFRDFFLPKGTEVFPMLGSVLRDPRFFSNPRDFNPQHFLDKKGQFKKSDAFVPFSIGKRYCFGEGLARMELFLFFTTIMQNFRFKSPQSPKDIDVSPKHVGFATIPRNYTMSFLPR
Procedure: (§1) 100 pmoles human recombinant NADPH-P450 reductase contained in microsomes (BD Biosciences Gentest, USA) are incubated with 50 pmoles CYP2A13 microsomes for 15 minutes on ice. Freshly sonicated dilaurylphosphatidylcholine (DLPC, Fluka, Switzerland) is added from a stock solution (1 mg/ml in water) to give a final concentration of 0.025 mg/ml (0.5 ml final reaction volume) and the mixture is incubated on ice for 15 minutes. Potassium phosphate buffer (1 M, pH 7.4) and water are added to give a buffer concentration of 0.1M in a final volume of 0.5 ml. The test compound is prepared as a 50 mM stock solution in acetonitrile. […]
(§2) Following the 60 min incubation, the sample is chilled on ice for 10 minutes and the enzymatic reaction is stopped by extraction with 0.3 ml of the organic solvent methyl-t-butyl-ether (MTBE) that allows separating the test compound and its metabolites from the aqueous phase which contains the enzymes. 1 microliter of the MTBE fraction is analysed by GC and GC-MS to identify metabolites which are present in the enzymatic reaction, but not in the control.
(§3) For test compounds which show a decrease in umbelliferone-derived fluorescence, the incubation with the enzyme but without coumarin and analysis of metabolites is performed by GC and GC-MS as described in Example 2A. […]

human CYP2A13 [2] = biological target: T1, human CYP2A13; assay: Incubation of a test compound with human CYP2A13 and identification of metabolites by GC and GC-MS; conditions: from decrease of umbelliferone and metabolite found by GC-MS
Procedure: as §1, §2, §3

hTRPM8 = hTRPM8 (Homo sapiens, UniProt Q7Z2W7); assay: Receptor screen using hTRPM8-expressing CHO-K1/FRT cells, Fura-2 intracellular calcium; conditions: for Receptor ligand character at hTRPM8: conclusion from the receptor screen after the metabolic reaction with CE; for Intracellular calcium levels in hTRPM8-expressing CHO-K1 cells: menthyl-lactate incubated with CE (menthol formed) versus control with substrate but without CE
hTRPM8, sequence (Q7Z2W7 whole entry): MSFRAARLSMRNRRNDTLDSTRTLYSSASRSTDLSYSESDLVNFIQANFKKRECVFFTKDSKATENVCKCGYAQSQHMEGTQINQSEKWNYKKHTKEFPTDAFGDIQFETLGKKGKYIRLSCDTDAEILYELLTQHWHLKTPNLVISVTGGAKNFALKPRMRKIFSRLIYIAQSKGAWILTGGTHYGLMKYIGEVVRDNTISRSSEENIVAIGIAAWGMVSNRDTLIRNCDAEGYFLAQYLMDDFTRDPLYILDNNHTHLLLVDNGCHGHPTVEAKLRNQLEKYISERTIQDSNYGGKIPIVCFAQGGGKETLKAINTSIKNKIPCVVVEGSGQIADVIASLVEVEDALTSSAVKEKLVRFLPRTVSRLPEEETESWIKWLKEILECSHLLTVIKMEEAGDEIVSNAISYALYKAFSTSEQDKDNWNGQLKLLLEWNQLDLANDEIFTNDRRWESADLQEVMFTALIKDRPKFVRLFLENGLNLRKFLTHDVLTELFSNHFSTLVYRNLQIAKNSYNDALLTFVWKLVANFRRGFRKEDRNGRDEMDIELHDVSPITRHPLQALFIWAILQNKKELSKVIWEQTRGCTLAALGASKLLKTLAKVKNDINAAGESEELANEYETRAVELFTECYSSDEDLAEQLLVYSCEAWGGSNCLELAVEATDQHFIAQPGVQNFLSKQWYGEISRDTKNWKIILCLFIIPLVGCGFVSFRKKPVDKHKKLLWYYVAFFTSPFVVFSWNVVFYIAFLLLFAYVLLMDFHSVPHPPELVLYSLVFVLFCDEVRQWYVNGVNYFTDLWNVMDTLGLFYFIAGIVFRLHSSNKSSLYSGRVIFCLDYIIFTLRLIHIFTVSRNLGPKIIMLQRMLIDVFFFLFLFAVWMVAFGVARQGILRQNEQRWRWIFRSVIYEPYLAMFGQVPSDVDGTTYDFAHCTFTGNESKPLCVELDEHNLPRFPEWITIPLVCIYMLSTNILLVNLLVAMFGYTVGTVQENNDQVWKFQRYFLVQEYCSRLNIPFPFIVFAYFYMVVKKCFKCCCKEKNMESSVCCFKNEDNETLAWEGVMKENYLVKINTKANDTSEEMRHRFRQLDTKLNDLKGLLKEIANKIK
Procedure: The stable CHO-K1/FRT cell clones that express hTRPM8 are used in a receptor screen to identify ligands of said receptor. This is performed analogous to the method described by Peier et al. (Cell (2002) 108:705-715) for the mouse TRPM8 cDNA. Glass coverslips, 24-well and 96-well tissue culture plates are used for cell plating. Cells are loaded with the calcium-sensitive fluorescent dye Fura-2 acetoxymethyl ester (Fura-2AM). As a test compound, menthol or another known ligand is diluted in a suitable buffer compatible with the CHO-K1/FRT cells.
Menthyl-lactate, a substrate of CE, is incubated with CE. Controls contain menthyl-lactate but not CE. The incubation is performed as described in Examples 7B, subject to the following modifications: after 30 min incubation time at 25° C., the samples are chilled on ice for 10 min and centrifuged. Supernatants are transferred to empty wells and diluted with 1 volume 2×HEPES (4 mM Ca^2+). The dilution is used as a test sample in a receptor screen as described in Example 8.

[3] = biological target: T2, human recombinant carboxyl esterase (CE) (Homo sapiens, UniProt P23141); assay: Incubation with CE in the absence of the standard substrate, metabolites by GC and GC-MS; format: in vitro ADME
T2 construct: In order to clone the full-length gene encoding CE; made in house; host or cells: Sf9 insect cells, baculovirus (pBlueBac4.5), used as microsomes
T2 sequence (P23141 18-566 isoform P23141-3 limits assumed): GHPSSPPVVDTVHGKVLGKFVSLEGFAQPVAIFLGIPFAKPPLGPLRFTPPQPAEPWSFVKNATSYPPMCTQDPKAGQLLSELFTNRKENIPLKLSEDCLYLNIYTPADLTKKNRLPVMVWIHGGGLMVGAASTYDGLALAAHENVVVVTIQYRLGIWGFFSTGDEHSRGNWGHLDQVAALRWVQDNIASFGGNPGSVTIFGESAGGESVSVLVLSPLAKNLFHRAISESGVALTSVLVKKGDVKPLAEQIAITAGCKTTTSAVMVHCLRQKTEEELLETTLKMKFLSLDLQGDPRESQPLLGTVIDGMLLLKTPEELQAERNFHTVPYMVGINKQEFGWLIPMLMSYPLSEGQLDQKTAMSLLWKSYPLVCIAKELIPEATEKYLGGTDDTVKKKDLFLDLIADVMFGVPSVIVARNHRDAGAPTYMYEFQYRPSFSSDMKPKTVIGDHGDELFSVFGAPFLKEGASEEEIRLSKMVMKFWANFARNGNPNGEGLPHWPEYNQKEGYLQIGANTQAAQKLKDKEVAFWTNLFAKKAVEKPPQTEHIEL
Procedure: Incubation with CE is performed in the absence of the standard substrate using 10 mU of CE in a total volume of 0.5 ml with the substrate at 0.25 mM and 50 mM potassium phosphate as the assay buffer.
GC and GC-MS analysis show the formation of an additional peak which is identified as menthol, which is a metabolite of menthyl-lactate.

[4] = biological target: T2, human recombinant carboxyl esterase (CE); assay: Incubation with human recombinant carboxyl esterase (CE) and standard substrate p-nitrophenylacetate, absorbance at 405 nm; format: biochemical; conditions: 0.1 mM p-nitrophenylacetate, test compound 0-1 mM, 25° C., pH 7.2
Procedure: The incubation of a test compound (potential substrate or modulator of CE) and CE is performed in the presence of a standard substrate, for example p-nitrophenylacetate. The hydrolysis product of p-nitrophenylacetate is p-nitrophenol which can be detected by measuring the absorbance at 405 nm. […] The incubation mixture contains CE microsomes containing CE enzyme corresponding to 4 mU of CE in a total volume of 0.2 ml (1 U hydrolyzes 1.0 μmole of ethylbutyrate to butyrate and ethanol per min at pH 8.0, 25° C.), 0.1 mM p-nitrophenylacetate, and the test compound in 50 mM potassium phosphate buffer (pH 7.2). The test compound is employed at different concentrations, for example 0, 0.05, 0.1, 0.25, 0.5, 1 mM, to allow detection of a dose-dependent effect. Samples that contain no test compound serve as a negative control. The samples are incubated at 25° C. and the increase in absorbance at 405 nm is measured every 5 minutes for 30 minutes.

[5] = biological target: T3, rat olfactory receptor 17 (Rattus norvegicus, UniProt P23270); assay: Receptor screen using HEK293 cells expressing Galpha-15,16 and the rat olfactory receptor 17, intracellular calcium; format: cell-based; conditions: octanol incubated with ADH (octanal present) versus control without enzyme
T3 construct: expressed in transfected cells; host or cells: HEK293
T3 sequence (P23270 1-327): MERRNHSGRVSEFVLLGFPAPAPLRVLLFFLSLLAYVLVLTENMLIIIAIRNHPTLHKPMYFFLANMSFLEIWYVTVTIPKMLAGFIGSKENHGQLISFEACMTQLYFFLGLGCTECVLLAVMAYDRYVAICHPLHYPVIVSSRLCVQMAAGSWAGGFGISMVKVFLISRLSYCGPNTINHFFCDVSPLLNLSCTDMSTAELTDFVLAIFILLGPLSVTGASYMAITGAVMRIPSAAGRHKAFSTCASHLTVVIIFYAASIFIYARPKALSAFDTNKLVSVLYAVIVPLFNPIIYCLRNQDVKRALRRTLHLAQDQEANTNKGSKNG
Procedure: Octanol is incubated with alcohol dehydrogenase as described in example 10, controls without alcohol dehydrogenase are incubated accordingly. In the presence of the enzyme, the metabolite of octanol, which is octanal, is present as shown in example 10.
The rat olfactory receptor 17 together with the Galpha15,16 are expressed by co-transfection in HEK293 cells as described by Krautwurst et al. (1998), Cell 95:917-926. Transfected HEK293 cells are plated on coverslips, 24-well tissue culture plates, and microtiter plates. These coverslips and plates are incubated with Fura-2 as described in example 8. The microtiter plates are incubated as described by Krautwurst et al. (1998).
The supernatant is transferred to an empty container and diluted with 2×HEPES (4 mM Ca^2+). This dilution is used as a sample in the receptor screen as described in Example 8, using HEK293 cells that express Galpha-15,16 and the rat olfactory receptor 17.
Fluorescence recording is performed to monitor any increase in intracellular, cytoplasmic calcium levels.

[6] = biological target: T4, equine liver ADH (EC 1.1.1.1) (Equus caballus, UniProt P00327); assay: Incubation of octanol with alcohol dehydrogenase (ADH), metabolite by GC and GC-MS; format: in vitro ADME; conditions: octanol 0.1 M, 50 mU ADH, 10 mM NAD+, pH 8.5, 30 min at 25° C.
T4 construct: purchased Sigma-Aldrich, Switzerland
T4 sequence (P00327 2-375 limits assumed): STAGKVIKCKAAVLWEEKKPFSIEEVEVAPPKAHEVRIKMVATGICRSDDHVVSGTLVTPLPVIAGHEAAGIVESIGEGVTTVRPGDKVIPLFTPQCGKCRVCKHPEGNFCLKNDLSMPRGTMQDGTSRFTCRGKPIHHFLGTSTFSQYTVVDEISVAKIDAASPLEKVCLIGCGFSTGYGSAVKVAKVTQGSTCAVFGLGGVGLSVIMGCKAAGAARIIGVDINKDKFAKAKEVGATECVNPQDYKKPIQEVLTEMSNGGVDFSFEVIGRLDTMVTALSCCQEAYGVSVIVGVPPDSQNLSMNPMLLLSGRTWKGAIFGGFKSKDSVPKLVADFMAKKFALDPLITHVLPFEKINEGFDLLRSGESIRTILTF
Procedure: Human alcohol dehydrogenase exists as a heterogeneous group of isozymes capable of oxidizing a wide variety of aliphatic and aromatic alcohols. Any isozyme of the human enzyme can be used. In this example, equine liver ADH (EC 1.1.1.1; Sigma-Aldrich, Switzerland) is used instead of the human enzyme. Octanol is incubated with ADH in a 1-ml reaction volume containing 50 mM potassium phosphate (pH 8.5) and 10 mM NAD+ (Fluka, Switzerland). Octanol is added at a concentration of 0.1 M and the metabolic reaction is initiated by addition of 50 mU of ADH and incubated for 30 min at 25° C. The tube is centrifuged to separate any debris and the supernatant extracted with MTBE for analysis by GC and GC-MS. […] The metabolite is identified by GC analysis and GC-MS as octanal.

[7] = biological target: T5, human microsomal epoxide hydrolase (EH) (Homo sapiens, UniProt P07099); assay: Incubation of styrene oxide with human microsomal epoxide hydrolase (EH), metabolite by GC-MS; format: in vitro ADME; conditions: 0.5 mM styrene oxide, 0.2 mg/ml EH, pH 9, 30 min at 37° C.
T5 construct: purchased BD Bioscience, Gentest, US
T5 sequence (P07099 1-455): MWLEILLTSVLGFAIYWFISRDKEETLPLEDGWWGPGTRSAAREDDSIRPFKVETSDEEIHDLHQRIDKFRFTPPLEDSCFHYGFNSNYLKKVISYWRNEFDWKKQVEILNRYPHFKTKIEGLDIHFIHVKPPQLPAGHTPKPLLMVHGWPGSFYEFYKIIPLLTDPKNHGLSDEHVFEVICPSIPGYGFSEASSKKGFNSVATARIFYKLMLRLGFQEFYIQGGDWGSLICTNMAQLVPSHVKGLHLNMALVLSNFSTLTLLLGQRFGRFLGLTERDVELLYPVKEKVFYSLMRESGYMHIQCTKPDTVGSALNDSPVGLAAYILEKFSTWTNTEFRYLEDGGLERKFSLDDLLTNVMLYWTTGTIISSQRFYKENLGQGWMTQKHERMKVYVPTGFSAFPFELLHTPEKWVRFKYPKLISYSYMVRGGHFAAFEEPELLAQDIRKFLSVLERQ

[8] = biological target: CYP2E1 and Epoxide Hydrolase (EH) (Homo sapiens, UniProt P05181)
CYP2E1 and Epoxide Hydrolase (EH), sequence (P05181 whole entry): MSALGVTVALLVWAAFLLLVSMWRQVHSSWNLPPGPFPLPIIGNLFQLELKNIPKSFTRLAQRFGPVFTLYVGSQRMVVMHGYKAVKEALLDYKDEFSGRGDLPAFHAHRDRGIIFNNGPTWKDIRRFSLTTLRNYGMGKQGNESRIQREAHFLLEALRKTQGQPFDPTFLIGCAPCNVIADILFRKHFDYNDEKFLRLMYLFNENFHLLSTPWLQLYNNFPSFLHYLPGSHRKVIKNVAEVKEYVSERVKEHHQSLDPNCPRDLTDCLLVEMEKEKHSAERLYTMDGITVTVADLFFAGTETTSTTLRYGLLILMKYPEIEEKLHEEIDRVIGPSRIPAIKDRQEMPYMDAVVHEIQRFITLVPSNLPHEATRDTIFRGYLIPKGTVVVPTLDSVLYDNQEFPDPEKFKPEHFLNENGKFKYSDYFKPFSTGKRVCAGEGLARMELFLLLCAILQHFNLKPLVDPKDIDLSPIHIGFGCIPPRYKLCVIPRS
Procedure: Styrene is incubated in a first incubation step with microsomal membranes of baculovirus-infected Sf9 insect cell membranes that contain CYP2E1 and POR. In a second incubation step, this sample is incubated with EH.
In the first step, 3 μl styrene (77 mM in acetonitrile), 425 μl potassium phosphate buffer (50 mM, pH 7.4), 16.5 μl MgCl2, 50 pmole of CYP2E1 containing cytochrome P450 reductase (purchased from BD Bioscience, Gentest, US) and water are mixed to give a total volume of 470 μl. 30 μl NADPH (50 mM in water) are added to the sample, to the control 30 μl water are added. Sample and control are incubated at 37° C. for 1 hour.
In the second step, 50 μl of 1 M Tris-Cl, pH 9 followed by 0.4 mg/ml protein (human microsomal epoxide hydrolase microsomes, 25,000 pmole styrene oxide hydrolase activity/(min×mg protein) BD Bioscience, Gentest, US) is added and incubation is continued for 30 min.
After the second step, 100 μl acetonitrile is added to sample and control and they are placed on ice. This stops the enzymatic reaction. Compounds in the samples are extracted with MTBE.
Metabolites, i.e. additional compounds present in the sample but not in the control, are identified by GC-MS.

With `COCC(=O)c1ccccc1` [2-methoxyacetophenone] the “Metabolite identified by GC and GC-MS (additional peak present in the sample, not in the control)” value (human CYP2A13 [1]) was 2-hydroxyacetophenone.

In the case of `CN(C)c1ccccc1` [N,N-dimethylaniline], the “Identification as substrate or modulator of CYP2A13” value (human CYP2A13 [2]) is reported as “substrate of CYP2A13”.

In the case of `CC1CCC(C(C)C)C(O)C1` (centres unmarked) [menthol], the “Receptor ligand character at hTRPM8” value (hTRPM8) is reported as “preferred hTRPM8 agonist” and the “Intracellular calcium levels in hTRPM8-expressing CHO-K1 cells” value (hTRPM8) is reported as “increase of intracellular calcium levels”.

With `CC1CCC(C(C)C)C(OC(=O)C(C)O)C1` (centres unmarked) [menthyl-lactate] the “Metabolite identified by GC and GC-MS (additional peak)” value ([3]; 10 mU CE, substrate 0.25 mM, 30 min at 25° C., no standard substrate) was “menthol”, the “Identification as substrate or modulator of human CE” value ([3]; from decrease of standard product and metabolite found) was “substrate of human CE” and the “Receptor ligand character at hTRPM8” value (hTRPM8) was “not the main receptor ligand”. The “Intracellular calcium levels in hTRPM8-expressing CHO-K1 cells” value (hTRPM8) was “no comparable increase” and the “Formation of the enzymatic reaction product of p-nitrophenylacetate compared to negative control” value [4] was “concentration-dependent decrease”.

`CCCCCCCC=O` [octanal] was tested, and the “Activation of the rat olfactory receptor 17 (increase in intracellular calcium levels)” value [5] was “agonist”.

`CCCCCCCCO` [octanol] was tested, and the “Metabolite identified by GC analysis and GC-MS” value [6] was “octanal” and the “Activation of the rat olfactory receptor 17 (increase in intracellular calcium levels)” value [5] was “not able to activate the receptor”.

`c1ccc(C2CO2)cc1` (centres unmarked) [styrene oxide] was tested, and the “Metabolite found by GC-MS in the sample but not in the control” value [7] was “diol”.

For `C=Cc1ccccc1` [styrene], the “Identified metabolites by GC-MS (present in the sample, not in the control)” value [8] was “styrene epoxide and the corresponding diol”.
